Values belong to the compound of their own block, whether it stands above or below them.
How the values were obtained:
TAS2R16 = target: T1, TAS2R16 (Homo sapiens, UniProt Q9NYV7); experiment: cell-based; design: bioluminescence intracellular calcium release assay, mt-clytin II with coelenterazine, Gα16-gust44 co-expressed; details: AD-293 cells
T1 sequence (Q9NYV7 1-291): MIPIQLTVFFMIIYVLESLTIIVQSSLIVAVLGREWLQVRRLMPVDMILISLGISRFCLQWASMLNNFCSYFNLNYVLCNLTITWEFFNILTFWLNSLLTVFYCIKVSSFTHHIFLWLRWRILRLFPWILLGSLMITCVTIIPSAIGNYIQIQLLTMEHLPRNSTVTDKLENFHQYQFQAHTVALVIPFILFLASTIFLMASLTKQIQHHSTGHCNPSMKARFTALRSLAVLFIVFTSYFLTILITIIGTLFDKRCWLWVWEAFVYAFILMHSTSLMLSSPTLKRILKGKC
Description: (§1) The bioluminescence-based assay was used to characterize the functional properties of various human TAS2Rs. For each TAS2R, one or more of its cognate agonists were tested against either the AD-293 or 293AD cell line, or both. Both cell lines were used because of their stronger adherent properties, which facilitate media changes on the day of the FLIPR assay. However, because both cell lines are generated differently, some disparities in gene expression capacities due to a myriad of factors could be reasonably expected. Consequently, some TAS2Rs may be well expressed in one cell line but not the other, and the ability of each cell line to express a particular TAS2R needs to be empirically evaluated. […] However, deviations between our experimental and published potency values for some ligands (i.e. TAS2R4: stevioside; TAS2R7: Mg^2+, Mn^2+, Zn^2+) were observed, which could be attributed to the use of a different assay format, readout and processing parameters, use of different cell lines with resultant potential differences in TAS2R expression levels, and quality and methodological differences in ligand preparations. Because potency values could be obtained that were consistent with the literature, or close to the reported minimal effective stimulatory concentration upon further testing of other TAS2R4/7 agonists, the deviation in EC50 values could be largely attributed to qualitative differences in the ligands (Supplementary Fig. S3). Calcium responses induced by the tested cognate agonists reflected specific TAS2R stimulation. […] Poor localization of TAS2Rs to the cell surface in heterologous systems was associated with diminished receptor signaling output and functionality. One of the more commonly used strategies to enhance the density of TAS2Rs at the cell surface involves fusing an N-terminal signal sequence of either the SST3, or Rho receptor to the TAS2R[24]. We adopted this approach, specifically co-expressing SST3-TAS2R with Gα16-gust44 chimera and mt-clytin II, to develop and validate a bioluminescence-based TAS2R intracellular calcium release assay. A strength of the bioluminescence-based TAS2R assay is its capacity to generate greater assay spans than that of fluorescence-based assays, which could be largely attributed to the utilization of mt-clytin II as the calcium reporter. Calcium-binding photoproteins in general are useful reporters for studying calcium-mediated signaling processes. […] Its fast calcium binding and dissociation kinetics render it a suitable indicator to report on swift, transient changes in calcium ion concentrations and study rapid receptor-ligand interactions. Mitochondrial targeting of clytin II was crucial to generating higher luminescence intensity than that of cytosol-localized clytin II, as inositol 1,4,5-triphosphate (IP3)-induced calcium release from the ER subsequent to ligand activation is thought to result in the formation of ER-proximal, calcium-rich microdomains that enabled the closely apposed mitochondria to sense a higher initial rise in calcium concentration than would be experienced by the bulk cytosol.

TAS2R20 = target: T2, TAS2R20 (Homo sapiens, UniProt P59543); experiment: cell-based; design: bioluminescence intracellular calcium release assay, mt-clytin II with coelenterazine, Gα16-gust44 co-expressed
T2 sequence (P59543 1-309): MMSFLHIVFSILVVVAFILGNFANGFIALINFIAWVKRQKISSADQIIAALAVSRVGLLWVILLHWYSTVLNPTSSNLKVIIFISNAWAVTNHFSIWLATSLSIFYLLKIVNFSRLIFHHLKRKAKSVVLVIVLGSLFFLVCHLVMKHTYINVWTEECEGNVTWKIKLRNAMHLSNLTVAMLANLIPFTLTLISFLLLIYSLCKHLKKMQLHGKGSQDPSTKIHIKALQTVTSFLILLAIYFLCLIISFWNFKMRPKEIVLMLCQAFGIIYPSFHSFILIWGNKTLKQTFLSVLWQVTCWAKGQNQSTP
Description: as §1

TAS2R8 = target: T3, TAS2R8 (Homo sapiens, UniProt Q9NYW2); experiment: cell-based; design: bioluminescence intracellular calcium release assay, mt-clytin II with coelenterazine, Gα16-gust44 co-expressed
T3 sequence (Q9NYW2 1-309): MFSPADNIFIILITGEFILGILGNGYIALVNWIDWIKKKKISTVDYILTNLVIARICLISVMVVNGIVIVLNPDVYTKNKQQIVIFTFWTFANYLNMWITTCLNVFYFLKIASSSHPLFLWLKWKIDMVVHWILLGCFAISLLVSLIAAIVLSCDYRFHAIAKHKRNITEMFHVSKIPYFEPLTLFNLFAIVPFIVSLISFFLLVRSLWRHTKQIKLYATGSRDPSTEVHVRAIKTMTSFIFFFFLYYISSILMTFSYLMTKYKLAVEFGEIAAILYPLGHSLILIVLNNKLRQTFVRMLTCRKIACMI
Description: as §1

TAS2R43 = target: T4, TAS2R43 (Homo sapiens, UniProt P59537); experiment: bioluminescence (mt-clytin II) intracellular calcium release; assay type: cell-based
T4 construct: AD-293 cells; co-expressed Galpha16-gust44 chimera and mt-clytin II reporter (type 2 multigene vector)
T4 sequence (P59537 2-309): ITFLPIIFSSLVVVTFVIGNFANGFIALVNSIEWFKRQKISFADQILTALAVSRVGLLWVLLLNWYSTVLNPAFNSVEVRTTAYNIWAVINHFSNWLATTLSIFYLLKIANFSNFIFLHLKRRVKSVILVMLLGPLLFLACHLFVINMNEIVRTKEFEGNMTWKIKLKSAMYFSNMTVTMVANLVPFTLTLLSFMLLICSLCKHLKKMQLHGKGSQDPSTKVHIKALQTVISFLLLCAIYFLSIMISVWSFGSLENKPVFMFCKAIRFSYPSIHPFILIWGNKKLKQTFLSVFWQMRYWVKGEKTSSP
Source text: bioluminescence (mt-clytin II) intracellular calcium release on TAS2R43 | TAS2R43, both aristolochic acid and aloin could be considered full agonists | indicating the partial agonist activity of caffeine towards TAS2R43

TAS2R3 = target: T5, TAS2R3 (Homo sapiens, UniProt Q9NYW6); experiment: cell-based; design: bioluminescence intracellular calcium release assay, mt-clytin II with coelenterazine, Gα16-gust44 co-expressed; details: 293AD cells
T5 sequence (Q9NYW6 1-316): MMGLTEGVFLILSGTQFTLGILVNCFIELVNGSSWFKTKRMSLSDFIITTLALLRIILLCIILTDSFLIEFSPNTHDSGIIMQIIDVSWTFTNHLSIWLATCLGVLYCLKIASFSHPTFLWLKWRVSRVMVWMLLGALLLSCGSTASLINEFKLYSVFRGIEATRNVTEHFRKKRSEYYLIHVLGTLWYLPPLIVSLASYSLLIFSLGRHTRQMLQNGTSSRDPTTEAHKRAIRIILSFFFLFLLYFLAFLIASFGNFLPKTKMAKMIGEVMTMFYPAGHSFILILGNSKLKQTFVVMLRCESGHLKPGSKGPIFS
Description: as §1

Structure (SMILES): OC[C@H]1O[C@@H](Oc2ccc(O)cc2)[C@H](O)[C@@H](O)[C@@H]1O [Arbutin]
EC50 (TAS2R16): 5000 ± 1200 µM

Structure (SMILES): O=C(N[C@H](CO)[C@H](O)c1ccc([N+](=O)[O-])cc1)C(Cl)Cl [Chloramphenicol]
EC50 (TAS2R8; 293AD cells): 18 ± 2.7 µM | EC50 (TAS2R8; AD-293 cells): 70 ± 12 µM

Structure (SMILES): CCN(CC)CCCC(C)Nc1ccnc2cc(Cl)ccc12 (stereo not shown) [Chloroquine diphosphate]
EC50 (TAS2R3): 45 ± 14 µM

Continued, values first:

EC50 (TAS2R16): 3000 ± 200 µM
Structure (SMILES): O=Cc1ccccc1O[C@@H]1O[C@H](CO)[C@@H](O)[C@H](O)[C@H]1O [Helicin]

EC50 (TAS2R20; 293AD cells): 35 ± 7 µM | EC50 (TAS2R20; AD-293 cells): 73 ± 26 µM
Structure (SMILES): O=C(O)c1cc(=O)c2c(OCC(O)COc3cccc4oc(C(=O)O)cc(=O)c34)cccc2o1 [Cromolyn]

EC50 (TAS2R43): 5 ± 3 µM
Structure (SMILES): O=C1c2c(O)cccc2C([C@@H]2O[C@H](CO)[C@@H](O)[C@H](O)[C@H]2O)c2cc(CO)cc(O)c21 (stereo partly shown) [aloin]

EC50 (TAS2R8; AD-293 cells): 1000 ± 100 µM
Structure (SMILES): CC[N+](CC)(CC(=O)Nc1c(C)cccc1C)Cc1ccccc1 [Denatonium benzoate]

EC50 (TAS2R43): 390 ± 120 µM
Structure (SMILES): Cn1c(=O)c2c(ncn2C)n(C)c1=O [caffeine]

— PMC9587021, “Construction of a bioluminescence-based assay for bitter taste receptors (TAS2Rs)” (Scientific Reports, 2022)
